# PubChem BioAssay AID2060505 (Molecular Pharmacology Branch, DTP, NCI, 2025)
# Tested on: 633275-114-R-J1-PDC complex spheroids, viability
# Test: Anticancer human tumor 633275-114-R-J1-PDC patient-derived endometrial adenocarcinoma cell line growth inhibition [GQUAD]
# Settings: for IC50: curve of first compound; for viability, T/C: stronger effect = lower value
# How it was run: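 Tumor cells were grown as complex spheroids with HUVEC endothelial cells and mesenchymal stem cells as stroma. G-quadruplex stabilizers were combined with targeted agents over half-log dilutions from near the clinical Cmax, or from 10 microM.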
# [1] = second compound 0.0316 µM, first compound 0.0316 µM
# [2] = second compound 0.0316 µM, first compound 0.1 µM
# [3] = second compound 0.0316 µM, first compound 0.316 µM
# [4] = second compound 0.0316 µM, first compound 1 µM
# [5] = second compound 0.0316 µM, first compound 3.16 µM
# [6] = second compound 0.0316 µM, first compound 10 µM
# [7] = second compound 0.1 µM, first compound 0.0316 µM
# [8] = second compound 0.1 µM, first compound 0.1 µM
# [9] = second compound 0.1 µM, first compound 0.316 µM
# [10] = second compound 0.1 µM, first compound 1 µM
# [11] = second compound 0.1 µM, first compound 3.16 µM
# [12] = second compound 0.1 µM, first compound 10 µM
# [13] = second compound 0.316 µM, first compound 0.0316 µM
# [14] = second compound 0.316 µM, first compound 0.1 µM
# [15] = second compound 0.316 µM, first compound 0.316 µM
# [16] = second compound 0.316 µM, first compound 1 µM
# [17] = second compound 0.316 µM, first compound 3.16 µM
# [18] = second compound 0.316 µM, first compound 10 µM
# [19] = second compound 1 µM, first compound 0.0316 µM
# [20] = second compound 1 µM, first compound 0.1 µM
# [21] = second compound 1 µM, first compound 0.316 µM
# [22] = second compound 1 µM, first compound 1 µM
# [23] = second compound 1 µM, first compound 3.16 µM
# [24] = second compound 1 µM, first compound 10 µM
# [25] = second compound 3.16 µM, first compound 0.0316 µM
# [26] = second compound 3.16 µM, first compound 0.1 µM
# [27] = second compound 3.16 µM, first compound 0.316 µM
# [28] = second compound 3.16 µM, first compound 1 µM
# [29] = second compound 3.16 µM, first compound 3.16 µM
# [30] = second compound 3.16 µM, first compound 10 µM
# [31] = second compound 10 µM, first compound 0.0316 µM
# [32] = second compound 10 µM, first compound 0.1 µM
# [33] = second compound 10 µM, first compound 0.316 µM
# [34] = second compound 10 µM, first compound 1 µM
# [35] = second compound 10 µM, first compound 3.16 µM
# [36] = second compound 10 µM, first compound 10 µM
# 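Further: spheroids exposed to the agents for seven days.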
# 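Wherever viability, T/C is given: percent of DMSO vehicle control viability which is 100%.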
smiles,measurement,setting,value
Cc1cccc(N(C)C(=O)C2C(O)CCN2c2nc(C)cc(C(F)(F)F)c2C#N)c1 (stereo not given) + CN(C)c1ccc(Nc2c3ccc(NC(=O)CCN4CCCC4)cc3nc3cc(NC(=O)CCN4CCCC4)ccc23)cc1,IC50,second compound 0.0316 µM,> 10 µM
same,IC50,second compound 0.1 µM,> 10 µM
same,IC50,second compound 0.316 µM,> 10 µM
same,IC50,second compound 1 µM,> 10 µM
same,IC50,second compound 3.16 µM,8.55 µM
same,IC50,second compound 10 µM,< 0.0316 µM
same,"viability, T/C",[1],102%
same,"viability, T/C",[2],99.2%
same,"viability, T/C",[3],105%
same,"viability, T/C",[4],105%
same,"viability, T/C",[5],96.3%
same,"viability, T/C",[6],104%
same,"viability, T/C",[7],107%
same,"viability, T/C",[8],103%
same,"viability, T/C",[9],104%
same,"viability, T/C",[10],99.5%
same,"viability, T/C",[11],101%
same,"viability, T/C",[12],97.8%
same,"viability, T/C",[13],99.3%
same,"viability, T/C",[14],94.4%
same,"viability, T/C",[15],101%
same,"viability, T/C",[16],91%
same,"viability, T/C",[17],94%
same,"viability, T/C",[18],85.3%
same,"viability, T/C",[19],96.2%
same,"viability, T/C",[20],96.6%
same,"viability, T/C",[21],97.6%
same,"viability, T/C",[22],99.5%
same,"viability, T/C",[23],94.6%
same,"viability, T/C",[24],87.1%
same,"viability, T/C",[25],88.8%
same,"viability, T/C",[26],84.8%
same,"viability, T/C",[27],95.5%
same,"viability, T/C",[28],82.4%
same,"viability, T/C",[29],69.2%
same,"viability, T/C",[30],47%
same,"viability, T/C",[31],30.5%
same,"viability, T/C",[32],34.7%
same,"viability, T/C",[33],28%
same,"viability, T/C",[34],29.6%
same,"viability, T/C",[35],28.2%
same,"viability, T/C",[36],16.1%
CC(C)n1c(=O)n(C)c2cnc3cc(F)c(-c4ccc(OCCCN5CCCCC5)nc4)cc3c21 + Cc1cnc(CNC(=O)c2c(=O)c3ccc(N4CCCN(C)CC4)nc3n3c2sc2ccccc23)cn1,IC50,second compound 0.0316 µM,> 10 µM
same,IC50,second compound 0.1 µM,< 0.0316 µM
same,IC50,second compound 0.316 µM,< 0.0316 µM
same,IC50,second compound 1 µM,< 0.0316 µM
same,IC50,second compound 3.16 µM,< 0.0316 µM
same,IC50,second compound 10 µM,< 0.0316 µM
same,"viability, T/C",[1],58%
same,"viability, T/C",[2],58.5%
same,"viability, T/C",[3],52.9%
same,"viability, T/C",[4],52.9%
same,"viability, T/C",[5],56.4%
same,"viability, T/C",[6],54%
same,"viability, T/C",[7],44.2%
same,"viability, T/C",[8],45.1%
same,"viability, T/C",[9],42.9%
same,"viability, T/C",[10],42.2%
same,"viability, T/C",[11],49.5%
same,"viability, T/C",[12],47.2%
same,"viability, T/C",[13],46.6%
same,"viability, T/C",[14],42.1%
same,"viability, T/C",[15],40.9%
same,"viability, T/C",[16],41.6%
same,"viability, T/C",[17],46.4%
same,"viability, T/C",[18],39.4%
same,"viability, T/C",[19],42.7%
same,"viability, T/C",[20],37.1%
same,"viability, T/C",[21],37.1%
same,"viability, T/C",[22],43.5%
same,"viability, T/C",[23],39.2%
same,"viability, T/C",[24],33.6%
same,"viability, T/C",[25],32.2%
same,"viability, T/C",[26],34.5%
same,"viability, T/C",[27],33.8%
same,"viability, T/C",[28],32.3%
same,"viability, T/C",[29],33.9%
same,"viability, T/C",[30],25.2%
same,"viability, T/C",[31],31.3%
same,"viability, T/C",[32],32%
same,"viability, T/C",[33],32.2%
same,"viability, T/C",[34],29.1%
same,"viability, T/C",[35],31.4%
same,"viability, T/C",[36],9.52%
O=C(c1cc(Cc2n[nH]c(=O)c3ccccc23)ccc1F)N1CCN(C(=O)C2CC2)CC1 + CN(C)c1ccc(Nc2c3ccc(NC(=O)CCN4CCCC4)cc3nc3cc(NC(=O)CCN4CCCC4)ccc23)cc1,IC50,second compound 0.0316 µM,9.96 µM
same,IC50,second compound 0.1 µM,9.89 µM
same,IC50,second compound 0.316 µM,> 10 µM
same,IC50,second compound 1 µM,> 10 µM
same,IC50,second compound 3.16 µM,5.36 µM
same,IC50,second compound 10 µM,< 0.0316 µM
same,"viability, T/C",[1],88.7%
same,"viability, T/C",[2],93.8%
same,"viability, T/C",[3],95%
same,"viability, T/C",[4],80%
same,"viability, T/C",[5],81.6%
same,"viability, T/C",[6],49.2%
same,"viability, T/C",[7],95.5%
same,"viability, T/C",[8],98.1%
same,"viability, T/C",[9],92.7%
same,"viability, T/C",[10],79.7%
same,"viability, T/C",[11],69%
same,"viability, T/C",[12],49.2%
same,"viability, T/C",[13],91.1%
same,"viability, T/C",[14],99.8%
same,"viability, T/C",[15],88.4%
same,"viability, T/C",[16],76.1%
same,"viability, T/C",[17],75.8%
same,"viability, T/C",[18],58.4%
same,"viability, T/C",[19],104%
same,"viability, T/C",[20],82.9%
same,"viability, T/C",[21],78.7%
same,"viability, T/C",[22],78.3%
same,"viability, T/C",[23],69.8%
same,"viability, T/C",[24],47.8%
same,"viability, T/C",[25],75.5%
same,"viability, T/C",[26],80.6%
same,"viability, T/C",[27],69.6%
same,"viability, T/C",[28],65.5%
same,"viability, T/C",[29],62.9%
same,"viability, T/C",[30],38%
same,"viability, T/C",[31],25.3%
same,"viability, T/C",[32],26.1%
same,"viability, T/C",[33],27.1%
same,"viability, T/C",[34],25.4%
same,"viability, T/C",[35],29%
same,"viability, T/C",[36],21.1%
COc1cccc2c1C(=O)c1c(O)c3c(c(O)c1C2=O)CC(O)(C(=O)CO)CC3OC1CC(N)C(O)C(C)O1 (stereo not given) + Cc1[nH]c2ccc(F)cc2c1-c1nc2c3cccnc3c3ncccc3c2[nH]1,IC50,second compound 0.0316 µM,0.0897 µM
same,IC50,second compound 0.1 µM,0.0946 µM
same,IC50,second compound 0.316 µM,0.0823 µM
same,IC50,second compound 1 µM,0.073 µM
same,IC50,second compound 3.16 µM,0.0454 µM
same,IC50,second compound 10 µM,0.0397 µM
same,"viability, T/C",[1],64.4%
same,"viability, T/C",[2],47.5%
same,"viability, T/C",[3],32%
same,"viability, T/C",[4],21.5%
same,"viability, T/C",[5],2.36%
same,"viability, T/C",[6],1.69%
same,"viability, T/C",[7],65.3%
same,"viability, T/C",[8],46.2%
same,"viability, T/C",[9],35.3%
same,"viability, T/C",[10],20.6%
same,"viability, T/C",[11],1.91%
same,"viability, T/C",[12],1.66%
same,"viability, T/C",[13],62.5%
same,"viability, T/C",[14],46%
same,"viability, T/C",[15],32.3%
same,"viability, T/C",[16],20.3%
same,"viability, T/C",[17],2.16%
same,"viability, T/C",[18],1.4%
same,"viability, T/C",[19],62.2%
same,"viability, T/C",[20],44%
same,"viability, T/C",[21],30.6%
same,"viability, T/C",[22],20.6%
same,"viability, T/C",[23],1.92%
same,"viability, T/C",[24],1.57%
same,"viability, T/C",[25],54.4%
same,"viability, T/C",[26],40.2%
same,"viability, T/C",[27],30.9%
same,"viability, T/C",[28],18.6%
same,"viability, T/C",[29],2.97%
same,"viability, T/C",[30],1.41%
same,"viability, T/C",[31],52.9%
same,"viability, T/C",[32],39.7%
same,"viability, T/C",[33],30.1%
same,"viability, T/C",[34],19.4%
same,"viability, T/C",[35],2.39%
same,"viability, T/C",[36],1.46%
O=C(c1cc(Cc2n[nH]c(=O)c3ccccc23)ccc1F)N1CCN(C(=O)C2CC2)CC1 + Cc1[nH]c2ccc(F)cc2c1-c1nc2c3cccnc3c3ncccc3c2[nH]1,IC50,second compound 0.0316 µM,> 10 µM
same,IC50,second compound 0.1 µM,> 10 µM
same,IC50,second compound 0.316 µM,> 10 µM
same,IC50,second compound 1 µM,> 10 µM
same,IC50,second compound 3.16 µM,8.31 µM
same,IC50,second compound 10 µM,> 10 µM
same,"viability, T/C",[1],90%
same,"viability, T/C",[2],88.3%
same,"viability, T/C",[3],88%
same,"viability, T/C",[4],84.7%
same,"viability, T/C",[5],80.5%
same,"viability, T/C",[6],64.5%
same,"viability, T/C",[7],98%
same,"viability, T/C",[8],89.9%
same,"viability, T/C",[9],94%
same,"viability, T/C",[10],79.5%
same,"viability, T/C",[11],80%
same,"viability, T/C",[12],56.9%
same,"viability, T/C",[13],92.1%
same,"viability, T/C",[14],93%
same,"viability, T/C",[15],88.8%
same,"viability, T/C",[16],83.1%
same,"viability, T/C",[17],76%
same,"viability, T/C",[18],55.4%
same,"viability, T/C",[19],90.6%
same,"viability, T/C",[20],89.7%
same,"viability, T/C",[21],88.4%
same,"viability, T/C",[22],77.1%
same,"viability, T/C",[23],74.1%
same,"viability, T/C",[24],56.7%
same,"viability, T/C",[25],69.8%
same,"viability, T/C",[26],67.4%
same,"viability, T/C",[27],68.4%
same,"viability, T/C",[28],63.5%
same,"viability, T/C",[29],59.5%
same,"viability, T/C",[30],48.2%
same,"viability, T/C",[31],68.9%
same,"viability, T/C",[32],66.5%
same,"viability, T/C",[33],70.2%
same,"viability, T/C",[34],62.1%
same,"viability, T/C",[35],61.1%
same,"viability, T/C",[36],49.4%
